Test in all cases: Fluorescence polarization-based galectin inhibition assay
What all share (format): binding

One assay has as its target galectin-1 (Homo sapiens, UniProt P09382). The conditions noted are these: 20° C., read-out: Calculated Kd Galectin 1. The source says:
(§1) Identification of the substances was made by HRMS (Micromass Q-tof micro) and NMR (Bruker Ultrashield 400 plus, 400 MHz). Chemical shifts are reported downfield from Me4Si using residual […] (7.26 ppm) or CHD2OD (3.35 ppm) as reference. Chemical shifts and coupling constants were obtained from ^1H-NMR and proton resonances were assigned from COSY experiments. Purification was made by RF-HPLC (Beckman, system gold) or flash chromatography, using silica gel (Davisil 35-70 μm, 60 Å). Reactions were followed by TLC (Aluminum sheet, silica gel 60 F254) visualized with UV light, H2SO4 (aq) or an iso-vanillin/H2SO4/EtOH development solution. THF and Et2O were dried over sodium/benzophenone and distilled. CH2Cl2 was dried by molecular sieves (4 Å, 1.6 mm). Other solvents and reagents were commercially available and used without further purifications. Fluorescence polarization experiments were performed on a PolarStar instrument (BMG, Offenburg; Germany). Evaluation of 20-34 as inhibitors of galectins was performed by use of fluorescence polarization as described in the literature (Sorme et al., 2003a, 2004). Galectin concentrations and fluorescent probe choice and concentrations were as described in Cumpstey et al. 2005a, except for galectin-3 for which the probe tdga-probe described in Salomonsson et al. 2010 was used at 20 nM together with galectin-3 at 200 nM concentrations. Each inhibitor was tested in duplicate at several concentrations between 4 and 0.25 μM. All fluorescence polarization experiments were conducted at 20° C., except galectin-7 for which experiments were conducted at 0° C.

The next assay concerns the target galectin-3 (Homo sapiens, UniProt P17931). The settings on record: 20° C., tdga-probe 20 nM, galectin-3 200 nM, read-out: Calculated Kd Galectin 3.
Text: as §1

Assay [1] concerns the target T1, galectin-4 (C-terminal domain) (Homo sapiens, UniProt P56470).
T1 sequence (P56470 194-323 limits assumed): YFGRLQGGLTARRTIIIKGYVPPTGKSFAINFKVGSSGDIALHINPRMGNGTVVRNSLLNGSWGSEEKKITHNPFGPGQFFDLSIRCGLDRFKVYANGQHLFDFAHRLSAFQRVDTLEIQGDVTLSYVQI
The settings on record: 20° C., read-out: Calculated Kd Galectin 4 (C-terminal domain).
Text: as §1

The target in assay [2] is T2, galectin-4 (N-terminal domain) (Homo sapiens, UniProt P56470).
T2 sequence (P56470 19-150 limits assumed): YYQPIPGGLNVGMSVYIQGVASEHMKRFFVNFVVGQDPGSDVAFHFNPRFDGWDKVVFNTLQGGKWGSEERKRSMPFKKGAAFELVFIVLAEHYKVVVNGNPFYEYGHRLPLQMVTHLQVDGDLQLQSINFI
The conditions noted are these: fluorescence polarization, 20° C.; read-out: Calculated Kd Galectin 4 (N-terminal domain).
Text: as §1

Assay [3] concerns the target T3, galectin-8 (N-terminal domain) (Homo sapiens, UniProt O00214).
T3 sequence (O00214 19-152 limits assumed): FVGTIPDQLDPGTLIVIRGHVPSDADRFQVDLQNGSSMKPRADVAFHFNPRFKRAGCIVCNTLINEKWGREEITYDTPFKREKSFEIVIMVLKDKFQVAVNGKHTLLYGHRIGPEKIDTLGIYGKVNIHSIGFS
The settings on record: 20° C., read-out: Calculated Kd Galectin 8 (N-terminal domain).
Text: as §1

Assay [4] addresses galectin-9 (N-terminal domain) (Homo sapiens, UniProt O00182). The settings on record: 20° C., read-out: Calculated Kd Galectin 9 (N-terminal domain).
Text: as §1

For assay [5], the target named is galectin-9 (C-terminal domain) (Homo sapiens, UniProt O00182). The settings on record: 20° C., read-out: Calculated Kd Galectin 9 (C-terminal domain).
Text: as §1

For the next assay, the target named is galectin-7 (Homo sapiens, UniProt P47929). The conditions noted are these: 0° C., read-out: Calculated Kd Galectin 7.
Text: as §1

The text below walks through data of patent US9353141B2, “Galectoside inhibitors of galectins” (GALECTO BIOTECH AB, priority 2012, dated 2016).

galectin-9 (N-terminal domain), sequence (O00182 17-148 limits assumed, species assumed): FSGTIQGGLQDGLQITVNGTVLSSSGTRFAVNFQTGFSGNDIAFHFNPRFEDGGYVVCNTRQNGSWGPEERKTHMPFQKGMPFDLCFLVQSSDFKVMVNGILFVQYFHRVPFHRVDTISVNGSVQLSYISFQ
galectin-1, sequence (P09382 whole entry, species assumed): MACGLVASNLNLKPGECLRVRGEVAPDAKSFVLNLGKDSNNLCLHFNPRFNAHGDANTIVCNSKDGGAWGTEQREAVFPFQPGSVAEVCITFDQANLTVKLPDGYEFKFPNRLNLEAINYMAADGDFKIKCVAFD
galectin-9 (C-terminal domain), sequence (O00182 227-355 limits assumed, species assumed): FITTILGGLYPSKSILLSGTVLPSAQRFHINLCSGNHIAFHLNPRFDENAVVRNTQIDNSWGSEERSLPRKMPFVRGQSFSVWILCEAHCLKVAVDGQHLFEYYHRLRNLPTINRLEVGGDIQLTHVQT
galectin-3, sequence (P17931 whole entry, species assumed): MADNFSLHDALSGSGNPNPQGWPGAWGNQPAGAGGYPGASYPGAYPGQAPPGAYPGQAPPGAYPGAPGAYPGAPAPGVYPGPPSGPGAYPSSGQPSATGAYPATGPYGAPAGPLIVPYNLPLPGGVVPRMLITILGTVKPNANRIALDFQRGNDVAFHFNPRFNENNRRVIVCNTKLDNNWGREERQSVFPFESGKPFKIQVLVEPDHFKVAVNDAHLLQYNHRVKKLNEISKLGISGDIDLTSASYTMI
galectin-7, sequence (P47929 whole entry, species assumed): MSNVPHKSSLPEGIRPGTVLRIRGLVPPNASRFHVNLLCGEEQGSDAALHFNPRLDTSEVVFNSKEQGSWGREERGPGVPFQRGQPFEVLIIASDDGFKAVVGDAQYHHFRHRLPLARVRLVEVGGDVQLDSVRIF

As to `O=c1oc2cc(O)ccc2cc1COC1C(O)[C@H](S[C@@H]2OC(CO)[C@H](O)C(OCc3cc4ccc(O)cc4oc3=O)C2O)OC(CO)[C@@H]1O` (stereo partly drawn) [Compound 23, bis-{3-O-[(7-hydroxy-2H-1-benzopyran-2-on-3-yl)-methyl]-β-D-galactopyranosy}sulfane], the Kd (as a rule, the constant that tells how readily two partners part at equilibrium) on galectin-1 is 3.9 µM; at galectin-3 it was 0.076 µM; in assay [1], above 300 µM; in assay [2], 32 µM; in assay [3] it was 40 µM; in assay [4] it was 1.5 µM.

Turning to `O=c1oc2ccc(O)cc2cc1COC1C(O)[C@H](S[C@@H]2OC(CO)[C@H](O)C(OCc3cc4cc(O)ccc4oc3=O)C2O)OC(CO)[C@@H]1O` (stereo partly drawn) [Compound 24, bis-{3-O-[(6-hydroxy-2H-1-benzopyran-2-on-3-yl)-methyl]-β-D-galactopyranosy}sulfane], the Kd on galectin-1 is 20 µM; at galectin-3, 0.15 µM; in assay [1], above 300 µM; in assay [2], 180 µM; in assay [3], 140 µM; in assay [4], 8.9 µM.

For the compound `O=c1oc2ccc3ccccc3c2cc1CO[C@H]1[C@@H](O)[C@@H](CO)O[C@@H](S[C@@H]2O[C@H](CO)[C@H](O)[C@H](OCc3cc4c(ccc5ccccc54)oc3=O)[C@H]2O)[C@@H]1O` [Compound 25, bis-{3-O-[(3H-naphtho[2,1-b]pyran-3-on-2-yl)-methyl]-β-D-galactopyranosyl}sulfane], the Kd on galectin-1 was 22 µM; on galectin-3 it was 0.51 µM; in assay [1], above 300 µM; in assay [2], 110 µM; in assay [3] it was above 300 µM; in assay [4], 4.7 µM.

Consider `CC(C)(C)c1ccc2oc(=O)c(COC3C(O)[C@H](S[C@@H]4OC(CO)[C@H](O)C(OCc5cc6cc(C(C)(C)C)ccc6oc5=O)C4O)OC(CO)[C@@H]3O)cc2c1` (stereo partly drawn) [Compound 26, bis-{3-O-[(6-tert-butyl-2H-1-benzopyran-2-on-3-yl)-methyl]-β-D-galactopyranosy}sulfane], for which the equilibrium dissociation constant (Kd) on galectin-1 is 25 µM; on galectin-3, 8.1 µM; in assay [1], above 1000 µM; in assay [2], above 1000 µM; in assay [3], 62 µM; in assay [5], 17 µM. In assay [4], the Kd was 39 µM.

Consider `O=c1oc2ccc(Cl)cc2cc1COC1C(O)[C@H](S[C@@H]2OC(CO)[C@H](O)C(OCc3cc4cc(Cl)ccc4oc3=O)C2O)OC(CO)[C@@H]1O` (stereo partly drawn) [Compound 27, bis-{3-O-[(6-chloro-2H-1-benzopyran-2-on-3-yl)-methyl]-β-D-galactopyranosy}sulfane], for which the Kd on galectin-1 was 7.9 µM; on galectin-3, 6 µM; in assay [1] it was 100 µM; in assay [2], 430 µM; in assay [3] it was 34 µM; in assay [5], 86 µM. The Kd in assay [4] is above 200 µM.

For `O=c1oc2ccc(F)cc2cc1CO[C@H]1[C@@H](O)[C@@H](CO)O[C@@H](S[C@@H]2O[C@H](CO)[C@H](O)[C@H](OCc3cc4cc(F)ccc4oc3=O)[C@H]2O)[C@@H]1O` [Compound 28, Bis-{3-O-[(6-fluoro-2H-1-benzopyran-2-on-3-yl)-methyl]-β-D-galactopyranosyl}sulfane], the equilibrium dissociation constant (Kd) is 3.4 µM on galectin-1; 0.097 µM on galectin-3; above 1000 µM in assay [1]; 180 µM in assay [2]; 47 µM in assay [3]; 7.9 µM in assay [5]. Besides, in assay [4], the equilibrium dissociation constant (Kd) is 3.5 µM.

In the case of `O=c1oc2cc(F)c(F)cc2cc1COC1C(O)[C@H](S[C@@H]2OC(CO)[C@H](O)C(OCc3cc4cc(F)c(F)cc4oc3=O)C2O)OC(CO)[C@@H]1O` (stereo partly drawn) [Compound 29, bis-{3-O-[(6,7-difluoro-2H-1-benzopyran-2-on-3-yl)-methyl]-β-D-galactopyranosy}sulfane], the Kd on galectin-1 was 1.6 µM; on galectin-3, 0.11 µM; in assay [1], 220 µM; in assay [2] it was 44 µM; in assay [3], 19 µM; in assay [5], 2.3 µM. Moreover, the Kd in assay [4] was 3 µM.

Take `O=c1oc2cccc(Cl)c2cc1CO[C@H]1[C@@H](O)[C@@H](CO)O[C@@H](S[C@@H]2O[C@H](CO)[C@H](O)[C@H](OCc3cc4c(Cl)cccc4oc3=O)[C@H]2O)[C@@H]1O` [Compound 30, bis-{3-O-[(5-chloro-2H-1-benzopyran-2-on-3-yl)-methyl]-β-D-galactopyranosyl}sulfane]: the dissociation constant (Kd) is 25 µM at galectin-1; 0.17 µM on galectin-3; above 1000 µM in assay [1]; 55 µM in assay [2]; 28 µM in assay [3]; 16 µM in assay [5]. Also, the Kd in assay [4] is 54 µM.

On to `O=c1oc2cccc(F)c2cc1CO[C@H]1[C@@H](O)[C@@H](CO)O[C@@H](S[C@@H]2O[C@H](CO)[C@H](O)[C@H](OCc3cc4c(F)cccc4oc3=O)[C@H]2O)[C@@H]1O` [Compound 31, Bis-{3-O-[(5-fluoro-2H-1-benzopyran-2-on-3-yl)-methyl]-β-D-galactopyranosyl}sulfane], for which the dissociation constant Kd at galectin-1 is 8.7 µM; at galectin-3 it was 0.061 µM; in assay [1], 540 µM; in assay [2], 46 µM; in assay [3], 28 µM; in assay [5] it was 5.5 µM. For the same compound, the Kd in assay [4] is 7 µM.

With `O=c1oc2ccc(F)c(F)c2cc1CO[C@H]1[C@@H](O)[C@@H](CO)O[C@@H](S[C@@H]2O[C@H](CO)[C@H](O)[C@H](OCc3cc4c(F)c(F)ccc4oc3=O)[C@H]2O)[C@@H]1O` [Compound 32, Bis-{3-O-[(5,6-difluoro-2H-1-benzopyran-2-on-3-yl)-methyl]-β-D-galactopyranosyl}sulfane], the dissociation constant (Kd) on galectin-1 is 3.9 µM; at galectin-3, 0.032 µM; in assay [1] it was above 500 µM; in assay [2], 22 µM; in assay [3], 41 µM; in assay [5] it was 1.5 µM. Moreover, the dissociation constant (Kd) in assay [4] was 1.1 µM.

Consider `O=c1oc2ccc(OC(F)(F)F)cc2cc1COC1C(O)[C@H](S[C@@H]2OC(CO)[C@H](O)C(OCc3cc4cc(OC(F)(F)F)ccc4oc3=O)C2O)OC(CO)[C@@H]1O` (stereo partly drawn) [Compound 33, bis-{3-O-[(6-trifluoromethoxy-2H-1-benzopyran-2-on-3-yl)-methyl]-β-D-galactopyranosy}sulfane], for which the dissociation constant (Kd) on galectin-1 is 84 µM; on galectin-3, 0.95 µM; in assay [1], above 500 µM; in assay [2] it was above 500 µM; in assay [3] it was 110 µM; in assay [5], 21 µM. Also, the dissociation constant (Kd) in assay [4] is 29 µM.

For the compound `Cc1ccc2cc(COC3C(O)[C@H](S[C@@H]4OC(CO)[C@H](O)C(OCc5cc6ccc(C)cc6oc5=O)C4O)OC(CO)[C@@H]3O)c(=O)oc2c1` (stereo partly drawn) [Compound 34, bis-{3-O-[(7-methyl-2H-1-benzopyran-2-on-3-yl)-methyl]-β-D-galactopyranosy}sulfane], the Kd is 200 µM on galectin-1; 9.4 µM on galectin-3; above 500 µM in assay [1]; above 500 µM in assay [2]; above 700 µM in assay [3]; above 500 µM in assay [5]. Besides, in assay [4], the equilibrium dissociation constant (Kd) is above 200 µM.

Regarding `O=C(OC1C(O)[C@H](S[C@@H]2OC(CO)[C@H](O)C(OC(=O)c3ccc4ccccc4c3)C2O)OC(CO)[C@@H]1O)c1ccc2ccccc2c1` (stereo partly shown) [Compound 35, reference compound], the equilibrium dissociation constant (Kd) on galectin-1 was 14.7 µM; at galectin-3, 10.7 µM; on galectin-7, 48 µM; in assay [4] it was 2.8 µM.
